In patent publication US20260334464A1, “INCREASED PALATABILITY OF INSECTICIDAL INSECT BAITS” (BIO LOGIC CROP SCIENCE S.L., priority 2023, published 2026):

What was measured:
Assay type in all cases: in vivo
insects [1] = test: Insecticidal efficacy / mortality of baits, general statement; details: for time to elimination of the insects (delayed mortality): cycloserine exclusively as active ingredient in bait; for difference in kill or duration between D-, L-cycloserine and mixtures: more detailed trials
Experimental: On the other hand, in addition to the effect of increased palatability, the effect on mortality of compositions containing D-cycloserine, L-cycloserine and DL-cycloserine was investigated.
At this point, we encounter the unexpected situation, not observed in previous trials because it is not usual to determine death within a short time after exposure to the bait (e.g. from a few minutes to a maximum of 24 hours), that baits containing cycloserine exclusively as active ingredient (that is, in a conceptual simplification, water, sugar and cycloserine, or even water with cycloserine), both D-cycloserine and L-cycloserine or their mixtures in any ratio, present delayed mortality, reaching the elimination of the insects they have eaten in up to 7 days.

insects [2] = test: Increase in palatability of baits, general statement; details: for comparison of activity of D and L isomers: D-cycloserine, L-cycloserine or mixtures in any ratio; for effect on palatability of baits (in words): general statement
Lasius niger [3] = test: Insecticidal efficacy of bait; details: according to our experience
Experimental: (§1) Ants: The tests are conducted in transparent plastic boxes covered on top with a mixture of ethanol and talcum powder (talcol) which prevents ants from fleeing. A drop of bait is placed on a holder, and the holder is placed with 10-30 ants and the behaviour of the ants is observed.
(§2) The number of ants eating bait is counted every minute until 10′ and every 5 minutes until 30′. The boxes with ants are kept with the sample, with a source of humidity and alternative food to observe mortality at 24 hours and 48 hours.

Linepithema humile = test: Insecticidal efficacy of bait; details: according to our experience
Experimental: as §1, §2

Simuliidae ssp. = test: Insecticidal efficacy of bait; details: according to our experience
Periplaneta america = test: Test 2A: palatability in terms of grams ingested (Example 2); details: cockroach test of Example 2
Description: (§3) Cockroaches: The cockroach test protocol, which can be performed at any location with usual temperature and humidity conditions and with field- or insectary-raised cockroaches, consists of collecting cockroaches that are deprived of food for 7 days; on the day of the test, 4 females and 4 males (or the desired number, for individual measurements, only one individual) are placed in boxes in which the bait is placed in a known quantity and the number of visits to the bait is counted every certain time, optionally the quantity ingested every hour or certain minutes is determined by differential weighing. In examples where mortality is considered, the number of individuals turned over per hour (or other defined time) is observed. The bait is removed and replaced with a standard bait-such as pelleted dog food and a water source, such as moistened cotton wool- and daily mortality is monitored for one week.
A similar test was performed with Periplaneta america, Blattella germanica and Blatta orientialis cockroaches, as detailed below for the first species. In this case, it was possible to evaluate the amount of bait ingested per individual, with the formulas of this example corresponding to those of Example 1, but replacing the 20% fructose in all of them by 20% commercial hazelnut cream, so that we have the formulations C.2.1, P.2.1, P.2.2, P.2.3 with that change only.

Bactrocera oleae = test: Insecticidal efficacy of bait; details: according to our experience
Ceratitis capitata = test: Insecticidal efficacy of bait; details: according to our experience
Experimental: (§4) Flies: Bait is added at 10% in water used by the flies for drinking, placed in 10×10×10 cm^3 ordinary breeding nets, ad libitum.
(§5) Similarly, tests have been carried out with […] with house flies (Musca domestica) and with Mediterranean flies (Ceratitis capitata).

Musca domestica = test: Insecticidal efficacy of bait; details: according to our experience
Experimental: as §4, §5

Blatta orientalis = test: Insecticidal efficacy of bait; details: according to our experience
Description: as §3

Periplaneta americana = test: Insecticidal efficacy of bait; details: according to our experience
Description: as §3

Blattella germanica = test: Insecticidal efficacy of bait; details: according to our experience
Description: as §3

cockroach = test: Transfer of lethal effect by cannibalism; details: cockroach offered a cycloserine-treated cockroach
Description: This circumstance, in addition to the use of cycloserine to increase the palatability of the baits, means that cycloserine can be used as an insecticide and also with an infrequent, or even unknown, particularity in pest control, i.e. the treated insects die in extraordinarily (relatively) long times of up to 7 days. This, which in principle may seem a disadvantage, is not so in certain cases, since it allows the ants to have more time to live functionally well, without external signs of intoxication that could warn other ants, and to transmit the bait by tropholaxy to the queen ant (or queen ants of the same anthill, when this is the case) and thus more effectively destroy the anthill. Similarly, the alertness (if any) of conspecifics to a dead cockroach near the bait is suppressed. […] Similarly, for long-term pest control, immediacy is not an insurmountable requirement, so it is also applicable in mosquito control to prevent disease transmission or pest control in agriculture.

Bactrocera cucurbitae = test: Insecticidal efficacy of bait; details: according to our experience
Aedes albopictus = test: Insecticidal efficacy of bait; details: according to our experience
Experimental: (§6) Mosquitoes: Bait is added at 10% in water used by mosquitoes for drinking, placed in ordinary breeding nets, 10×10×10 cm^3, ad libitum.
(§7) In the case of mosquito tests, the bait is given ad libitum to 50 specimens in 10 cm×10 cm×10 cm^3 cloth cages, using cotton wool impregnated with the baits mentioned above, but with a sugar mix content of only 10%, the rest being compensated by adding more water to the formula, so that it is liquid enough to be absorbed by the mosquitoes.

Aedes aegypti = test: Insecticidal efficacy of bait; details: according to our experience
Experimental: as §6, §7

Culex pipiens = test: Insecticidal efficacy of bait; details: according to our experience
Experimental: as §6, §7

Culex quinquefasciatus = test: Insecticidal efficacy of bait; details: according to our experience
Experimental: as §6

Anopheles gambiae = test: Insecticidal efficacy of bait; details: according to our experience
Experimental: as §6

Lasius niger [4] = test: Palatability of imidacloprid ant bait (Example 3); details: 0.01 wt. % imidacloprid in bait
Experimental: as §1, §2
To test the combination effect of cycloserine and/or phloxine with known insecticides used in baits, we used an ant bait-type composition and its equivalents of Example 1, but containing 0.01 wt. % of the insecticide imidacloprid. Serine was also tested in parallel instead of cycloserine.
The bait is offered to them, in boxes containing 10 Lasius niger ants each, for 3 hours, during which time palatability is observed.

ants = test: Example 1 baits with serine, increase in palatability vs control (results not shown); details: serine instead of cycloserine, or combinations
Experimental: as §1, §2
On the other hand (results not shown), when serine is used instead of cycloserine in the bait, an increase in palatability is also observed, although somewhat lower, around 1.5-1.7 times compared to the control, and when serine, cycloserine and phloxine B, or serine and phloxine B are combined, this increase is 1.7-1-8 times compared to the control, with no appreciable differences between these last two combinations.

N[C@@H]1CONC1=O [D-cycloserine]
time to elimination of the insects (delayed mortality) (insects [1]): up to 7 days
difference in kill or duration between D-, L-cycloserine and mixtures (insects [1]): no significant difference in kill or duration
comparison of activity of D and L isomers (insects [2]): we have not seen an activity of one isomer greater than the other

N[C@H]1CONC1=O [L-cycloserine]
time to elimination of the insects (delayed mortality) (insects [1]): up to 7 days
difference in kill or duration between D-, L-cycloserine and mixtures (insects [1]): no significant difference in kill or duration
comparison of activity of D and L isomers (insects [2]): we have not seen an activity of one isomer greater than the other

N[C@@H]1CON=C1O [cycloserine]
efficacy as an insecticide (Lasius niger [3]): great efficacy
efficacy as an insecticide (Linepithema humile): great efficacy
efficacy as an insecticide (Simuliidae ssp.): great efficacy
effect on palatability (in words) (Periplaneta america): more pronounced
efficacy as an insecticide (Bactrocera oleae): great efficacy
efficacy as an insecticide (Ceratitis capitata): great efficacy
efficacy as an insecticide (Musca domestica): great efficacy
efficacy as an insecticide (Blatta orientalis): great efficacy
efficacy as an insecticide (Periplaneta americana): great efficacy
efficacy as an insecticide (Blattella germanica): great efficacy
transfer of lethal effect to another cockroach (cockroach): lethal effect of cycloserine on one cockroach is transferred to another cockroach
time to elimination of the insects (delayed mortality) (insects [1]): up to 7 days
efficacy as an insecticide (Bactrocera cucurbitae): great efficacy
efficacy as an insecticide (Aedes albopictus): great efficacy
efficacy as an insecticide (Aedes aegypti): great efficacy
efficacy as an insecticide (Culex pipiens): great efficacy
efficacy as an insecticide (Culex quinquefasciatus): great efficacy
efficacy as an insecticide (Anopheles gambiae): great efficacy
comparison of activity of D and L isomers (insects [2]): activity we have observed to be the same
effect on palatability of baits (in words) (insects [2]): shown to increase the palatability of baits

O=[N+]([O-])NC1=NCCN1Cc1ccc(Cl)nc1 [imidacloprid]
bait rejection (Lasius niger [4]): does not cause bait rejection

O=C([O-])c1c(Cl)c(Cl)c(Cl)c(Cl)c1-c1c2cc(Br)c(=O)c(Br)c-2oc2c(Br)c([O-])c(Br)cc12.[Na+].[Na+] [phloxine B]
effect on palatability of baits (in words) (insects [2]): shown to increase the palatability of baits

N[C@@H](CO)C(=O)O [serine]
effect on palatability (in words) (Periplaneta america): increases palatability, but to a lesser extent than cycloserine
increase in palatability compared to the control (ants): 1.5-1.7 times
effect on palatability of baits (in words) (insects [2]): shown to increase the palatability of baits
